Holding throughout (assay): MIC by broth microdilution (antibacterial and synergistic activity)
Holding throughout (type): cell-based

Experiment [1] relates to P. aeruginosa clinical isolate (strain 9, KPC-2). To be noted: strain 9 (KPC-2); for MIC: Pseudomonas aeruginosa. On the procedure: (§1) Compounds of the present invention alone, avibactam (AVI) alone, relebactam (REL) alone, meropenem (MER) alone, imipenem (IMI) alone, and as a combination of compounds of the present invention, or avibactam or relebactam with test antibiotic (meropenem or imipenem) was tested for antimicrobial activity by determining minimum inhibitory concentration (MIC, mg/L) using the broth microdilution method according to the guidelines of the Clinical Laboratories and Standards Institute (“Methods for Dilution Antimicrobial Susceptibility Tests for Bacterial that Grow Aerobically”, Approved standard, 7th ed., Clinical and Laboratories Standards Institute (CLSI) Document M7-A8, Wayne, Pa., USA, 2009). Meropenem or imipenem as a test antibiotic compound was dissolved in DMSO, and then diluted in microbial growth medium (Mueller-Hinton Broth II, cation adjusted) resulting in a final concentration range of 0.031-64 mg/L in serial two-fold dilution. In all cases the final DMSO concentration was less than 0.5%. Bacteria were added to 96-well microtitre plates containing the serial two-fold dilutions of the compounds; the final cell density was approximately 5×10^5 colony forming units/mL (CFU/mL). Plates were incubated at 37° C. for 18-24 hours and read visually. The MIC, i.e. the lowest concentration of the test compound that inhibited visible growth of the bacteria, was recorded. The same assay conditions were used when the compounds of present invention alone, avibactam or relebactam alone (as a control), and as a combination of the present invention each compound, or avibactam or relebactam with test meropenem or imipenem antibiotic compound was tested for minimum inhibitory concentration (MIC, mg/L). While test meropenem or imipenem was serially diluted as described above, a constant concentration of avibactam, or relebactam or the present invention each compound of 4 mg/L was used.
(§2) Bacterial strains that were used to evaluate the antimicrobial activity using the MIC determination included but were not limited to E. coli clinical isolate (strain 1, TEM-1), E. coli 8739 (strain 2, CTX-M15), K. pneumoniae clinical isolate (strain 3, SHV-1), K. pneumoniae 700603 (strain 4, KPC-3, TEM-1), E. cloacae clinical isolate (strain 5, P99), E. cloacae 700323 (strain 6, AmpC), A. baumannii clinical isolate (strain 7, OXA-23, OXA-40), A. baumannii 19606 (strain 8, OXA-24), P. aeruginosa clinical isolate (strain 9, KPC-2), P. aeruginosa 9027 (strain 10, AmpC).

Experiment [2] concerns K. pneumoniae clinical isolate (strain 3, SHV-1). To be noted: strain 3 (SHV-1); for MIC: Klebsiella pneumoniae. On the procedure: as §1, §2
Experiment [3] relates to A. baumannii clinical isolate (strain 7, OXA-23, OXA-40). As to conditions: strain 7 (OXA-23/40); for MIC: Acinetobacter baumannii. On the procedure:
as §1, §2

Experiment [4] has as its system E. cloacae clinical isolate (strain 5, P99). To be noted: strain 5 (P99); for MIC: Enterobacter cloacae. On the procedure:
as §1, §2

Experiment [5] deals with P. aeruginosa 9027 (strain 10, AmpC). As to conditions: strain 10 (AmpC); for MIC: Pseudomonas aeruginosa. The procedure: as §1, §2
In experiment [6] the test system is K. pneumoniae 700603 (strain 4, KPC-3, TEM-1). To be noted: strain 4 (KPC-3, TEM-1); for MIC: Klebsiella pneumoniae. On the procedure: as §1, §2
The test system of experiment [7] is E. coli clinical isolate (strain 1, TEM-1). As to conditions: strain 1 (TEM-1); for MIC: Escherichia coli. The procedure:
as §1, §2

The test system of experiment [8] is E. coli 8739 (strain 2, CTX-M15). As to conditions: Escherichia coli, read-out: Antibacterial activity, MIC, inhibitor Alone. On the procedure:
as §1, §2

Experiment [9] has as its system A. baumannii 19606 (strain 8, OXA-24). As to conditions: for MIC: Acinetobacter baumannii. On the procedure: as §1, §2
Experiment [10] relates to E. cloacae 700323 (strain 6, AmpC). To be noted: strain 6 (AmpC); for MIC: Enterobacter cloacae. The procedure:
as §1, §2

Where [11] appears, read: compound alone, no antibiotic, read-out: Antibacterial activity, MIC, inhibitor Alone.
Where [12] appears, read: read-out: Antibacterial activity, MIC, inhibitor Alone.
[13] abbreviates: imipenem alone, read-out: MIC, IMI Alone.
The mark [14] stands for this setting: meropenem alone, read-out: MIC, MER Alone.

Counter-ions that a name gives are not always drawn. Like-named read-outs stand apart in the source and are kept apart here.

Consider `N=C(NS(=O)(=O)c1cccnc1)[C@@H]1CC[C@@H]2CN1C(=O)N2OS(=O)(=O)[O-].[Na+]` [Ex. 13, Sodium (2S,5R)-7-oxo-2-(N-(pyridin-3-ylsulfonyl)carbamimidoyl)-1,6-diazabicyclo[3.2.1]octan-6-yl sulfate], for which the MIC in [1] (setting [11]), in experiment [2] (setting [11]), in experiment [3] (setting [11]), in experiment [4] (setting [11]), in experiment [5] (setting [11]) and in experiment [6] (setting [11]) was over 64 µg/mL throughout. Besides, the MIC in [7] (setting [11]), in experiment [8], in experiment [9] (setting [12]) and in experiment [10] (setting [11]) was over 64 µg/mL each time.

Take `O=C(NC1CCNCC1)[C@@H]1CC[C@@H]2CN1C(=O)N2OS(=O)(=O)O` [REL, relebactam, reference compound]: the MIC in [1] (setting [11]), in experiment [2] (setting [11]), in [3] (setting [11]), in experiment [4] (setting [11]), in experiment [5] (setting [11]) and in experiment [6] (setting [11]) was over 64 µg/mL each time. The MIC in [7] (setting [11]), in experiment [8], in experiment [9] (setting [12]) and in experiment [10] (setting [11]) was over 64 µg/mL in each case.

Take `N=C(NS(=O)(=O)C(F)(F)F)[C@@H]1CC[C@@H]2CN1C(=O)N2OS(=O)(=O)O` [Ex. 14, (2S,5R)-7-oxo-2-(N-((trifluoromethyl)sulfonyl)carbamimidoyl)-1,6-diazabicyclo[3.2.1]octan-6-yl hydrogen sulfate]: the MIC in [1] (setting [11]), in experiment [2] (setting [11]), in experiment [3] (setting [11]), in [4] (setting [11]), in [5] (setting [11]) and in experiment [6] (setting [11]) was over 64 µg/mL each time. The MIC in experiment [7] (setting [11]), in experiment [8], in experiment [9] (setting [12]) and in [10] (setting [11]) was over 64 µg/mL each time.

Consider `CCNS(=O)(=O)NC(=N)[C@@H]1CC[C@@H]2CN1C(=O)N2OS(=O)(=O)O` [Ex. 18, (2S,5R)-2-(N—(N-Ethylsulfamoyl)carbamimidoyl)-7-oxo-1,6-diazabicyclo[3.2.1]octan-6-yl hydrogen sulfate], for which the MIC in experiment [1] (setting [11]), in [2] (setting [11]), in experiment [3] (setting [11]), in [4] (setting [11]), in experiment [5] (setting [11]) and in experiment [6] (setting [11]) was over 64 µg/mL throughout. The minimal inhibitory concentration (MIC) in [7] (setting [11]), in experiment [8], in experiment [9] (setting [12]) and in [10] (setting [11]) was over 64 µg/mL each time.

`COC(=O)CS(=O)(=O)NC(=N)[C@@H]1CC[C@@H]2CN1C(=O)N2OS(=O)(=O)[O-].[Na+]` [Ex. 2, Sodium (2S,5R)-2-(N-((2-methoxy-2-oxoethyl)sulfonyl)caramimidoyl)-7-oxo-1,6-diazabicyclo[3.2.1]octan-6-yl sulfate]: the “MIC of imipenem in combination with the inhibitor (IMI + inhibitor)” value in experiment [1] (inhibitor at constant 4 mg/L) was 1.0 µg/mL; in [2] (inhibitor at constant 4 mg/L), 0.25 µg/mL; in [3] (inhibitor at constant 4 mg/L) it was 0.25 µg/mL; in [4] (inhibitor at constant 4 mg/L) it was under 0.125 µg/mL; in experiment [5] (inhibitor at constant 4 mg/L), 1.0 µg/mL; in [6] (inhibitor at constant 4 mg/L) it was under 0.125 µg/mL. Further, the “MIC of imipenem in combination with the inhibitor (IMI + inhibitor)” value in [7] (inhibitor at constant 4 mg/L) is under 0.125 µg/mL; in [10] (inhibitor at constant 4 mg/L), 0.5 µg/mL. Moreover, the “MIC of meropenem in combination with the inhibitor (MER + inhibitor)” value in experiment [1] (inhibitor at constant 4 mg/L) is 0.125 µg/mL; in experiment [2] (inhibitor at constant 4 mg/L) it was 0.125 µg/mL; in experiment [3] (inhibitor at constant 4 mg/L), under 0.125 µg/mL; in experiment [4] (inhibitor at constant 4 mg/L) it was under 0.125 µg/mL; in [5] (inhibitor at constant 4 mg/L), under 0.125 µg/mL; in [6] (inhibitor at constant 4 mg/L), under 0.125 µg/mL. For the same compound, the “MIC of meropenem in combination with the inhibitor (MER + inhibitor)” value in experiment [7] (inhibitor at constant 4 mg/L) was under 0.125 µg/mL; in experiment [9] (strain 8 (OXA-24), inhibitor at constant 4 mg/L) it was 0.5 µg/mL; in experiment [10] (inhibitor at constant 4 mg/L) it was under 0.125 µg/mL.

As to `Cn1cnc(S(=O)(=O)NC(=N)[C@@H]2CC[C@@H]3CN2C(=O)N3OS(=O)(=O)[O-])c1.[Na+]` [Ex. 7, Sodium (2S,5R)-2-(N-((1-methyl-1H-imidazol-4-yl)sulfonyl)carbamimidoyl)-7-oxo-1,6-diazabicyclo[3.2.1]octan-6-yl sulfate], the MIC in experiment [2] (setting [11]), in experiment [3] (setting [11]), in experiment [4] (setting [11]), in experiment [5] (setting [11]), in experiment [6] (setting [11]) and in [7] (setting [11]) was over 64 µg/mL throughout. In addition, the MIC in [8], in experiment [9] (setting [12]) and in experiment [10] (setting [11]) was over 64 µg/mL in each case.

Turning to `C[C@@H](O)[C@H]1C(=O)N2C(C(=O)O)=C(SCCN=CN)C[C@H]12` [IMI, imipenem, reference compound], the MIC in [1] (setting [13]) stood at 2 µg/mL; in experiment [2] (setting [13]), 2 µg/mL; in [3] (setting [13]), 0.5 µg/mL; in experiment [4] (setting [13]) it was 4 µg/mL; in experiment [5] (setting [13]), 4 µg/mL; in experiment [6] (setting [13]), 4 µg/mL. Besides, the MIC in experiment [7] (setting [13]) is 0.5 µg/mL; in experiment [9] (read-out: MIC, IMI Alone) it was 2 µg/mL; in experiment [10] (setting [13]), 0.5 µg/mL.

For `C[C@@H](O)[C@H]1C(=O)N2C(C(=O)O)=C(S[C@@H]3CN[C@H](C(=O)N(C)C)C3)[C@H](C)[C@H]12` [MER, meropenem, reference compound], the MIC is 4 µg/mL in [1] (setting [14]); 4 µg/mL in experiment [2] (setting [14]); 4 µg/mL in [3] (setting [14]); 4 µg/mL in experiment [4] (setting [14]); 4 µg/mL in [5] (setting [14]); 2 µg/mL in [6] (setting [14]). Further, the MIC is 4 µg/mL in experiment [7] (setting [14]); 2 µg/mL in [9] (read-out: MIC, MER Alone); 4 µg/mL in experiment [10] (setting [14]).

Values taken from patent US12410166B2, “Sulfonylamidine substituted compounds and their use as beta-lactamase inhibitors” (NINGXIA ACADEMY OF AGRICULTURE AND FORESTRY SCIENCES, priority 2021, dated 2025).
